{"source": "patent US12295937B2", "about": "“Psychoactive medicines and their use for treating psychiatric and neurological conditions and disorders” (Transcend Therapeutics, Inc., priority 2021, dated 2025)", "key": {"[1]": {"molecular_target": "Human serotonin 5HT2B receptor (Homo sapiens, UniProt P41595)", "sequence (P41595 whole entry)": "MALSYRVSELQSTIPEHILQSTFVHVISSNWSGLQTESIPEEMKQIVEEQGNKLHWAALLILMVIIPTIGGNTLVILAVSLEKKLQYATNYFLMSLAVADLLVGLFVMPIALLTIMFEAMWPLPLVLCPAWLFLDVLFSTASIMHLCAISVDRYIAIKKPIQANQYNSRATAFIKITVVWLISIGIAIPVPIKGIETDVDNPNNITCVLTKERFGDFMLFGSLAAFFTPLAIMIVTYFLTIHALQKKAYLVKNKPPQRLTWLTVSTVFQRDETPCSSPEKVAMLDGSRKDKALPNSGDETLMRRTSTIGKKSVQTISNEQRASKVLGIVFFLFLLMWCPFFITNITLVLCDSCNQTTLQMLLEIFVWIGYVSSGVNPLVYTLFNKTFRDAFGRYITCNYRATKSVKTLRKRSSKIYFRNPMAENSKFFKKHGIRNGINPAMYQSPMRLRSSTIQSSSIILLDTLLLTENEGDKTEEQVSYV", "assay": "Competitive radioligand binding to 5HT2B receptor membranes", "protocol": "Human serotonin 5HT2B receptor membrane preparations were divided into aliquots. On the day of the assay, membranes were diluted at 1:200 in incubation buffer. […] To each well was added 150 μL membrane preparation, 50 μL test compound, non-specific compound, or buffer alone, as well as 50 μL radioligand. The plate was incubated at 35° C. for 90 minutes with gentle agitation. […] For each concentration of drug, non-specific binding was subtracted from total binding to give specific binding. […] Ki was subsequently calculated using the ChengPrusoff equation."}, "[2]": {"assay": "IMPACT-1 Part A open-label study in PTSD", "format": "in vivo, human", "parameters": "Anxiety Sub-Scale of MADRS, score reduction / Participants with absence of Reduced Sleep (MADRS): concentration or dose not given beside the values", "protocol": "For each participant in Parts A and B, the study consists of: • Screening Period (Day −28 to Day −4): Informed consent, eligibility assessment, and enrolment of eligible participants. • Baseline/Preparatory Session (Day −3 to Day −1): Baseline assessments, confirmation of eligibility, and a preparatory psychoeducation session leading to enrolment confirmation. • Treatment Period (Day 1 to Day 24): Four weekly dose sessions, with associated remote sessions. The dose sessions last at least 8 hours, or until all effects (physical and psychological) have resolved (whichever is longer). Each dose session is followed by a safety phone call 1 day after dosing and efficacy assessments 2 days after dosing. Each dosing period is video recorded for quality and training purposes. The videos may be reviewed to ensure the Mentor is adhering to the Mentor training. • Follow-Up Period (Day 29 to Day 64): Follow-Up visits for safety and efficacy occur at 1, 2, 3 and 6 weeks post-final study drug administration. In addition, there are Mentor-Led Reflection Sessions 1, 2 and 3 weeks post-final study drug administration. Participants are contacted via telephone on Day 57 (±2 days) for Follow-Up. • Discontinuations: Participants who discontinue prematurely are asked to return for an extra visit to duplicate the 6-week end-of-study (EOS) visit.\nEach dose was given as an initial dose, followed by a second dose 90 minutes later. During the dosing session, participants were accompanied by a trained Mentor who provided non-directive support. After the 4-week treatment period, participants attended follow-up visits at 1, 2, 3, and 6 weeks following the last dose. Safety was assessed via standard measures including adverse events. PTSD symptoms were assessed via Clinician-Administered PTSD Scale for DSM-5 (CAPS-5), depressive symptoms were assessed via Montgomery-Åsberg Depression Rating Scale (MADRS). Anti-anxiety efficacy was evaluated using the Anxiety Sub-Scale of MADRS, namely, questions (Items 3, 4, 5, 6) that address four anxiety items (inner tension, reduced sleep, reduced appetite, concentration difficulties) Changes from baseline were analyzed using a paired t-test p-values.\nMethods: The IMPACT-1 study is a multi-center, two-part clinical trial. Part A has completed and was an open-label evaluation involving 14 participants with PTSD. Eligible participants are adults with severe PTSD (CAPS-5≥35) who had failed at least 1 prior treatment (pharmacotherapy and/or psychotherapy) for PTSD. […] Throughout each dosing session, participants were provided non-directive psychological support by a trained mental health practitioner. Following the 4-week treatment period, participants were followed for an additional 6 weeks to evaluate the durability of the therapeutic effect. PTSD symptom improvement was evaluated on the CAPS-5. Functioning was assessed via the 3 domains (school/work, family life, social life) of the Sheehan Disability Scale (SDS). Global improvement was measured by the CGI-I. Safety was assessed by monitoring adverse events, vital signs, and C-SSRS.\nFollowing the 4-week treatment period, participants were followed for an additional 6 weeks to evaluate the durability of the therapeutic effect. Sleep-related improvements were evaluated on the CAPS-5 (including distressing dreams [item B2; scores range 0 to 4] and sleep disturbances [item E6; scores range 0 to 4]), the Pittsburgh Sleep Quality Index (PSQI; total scores range 0 to 21) and subscales, and the reduced sleep item of the Montgomery-Åsberg Depression Rating Scale (MADRS; scores range 0 to 6)."}, "serotonin transporter": {"molecular_target": "serotonin transporter (Homo sapiens, UniProt P31645)", "sequence (P31645 whole entry)": "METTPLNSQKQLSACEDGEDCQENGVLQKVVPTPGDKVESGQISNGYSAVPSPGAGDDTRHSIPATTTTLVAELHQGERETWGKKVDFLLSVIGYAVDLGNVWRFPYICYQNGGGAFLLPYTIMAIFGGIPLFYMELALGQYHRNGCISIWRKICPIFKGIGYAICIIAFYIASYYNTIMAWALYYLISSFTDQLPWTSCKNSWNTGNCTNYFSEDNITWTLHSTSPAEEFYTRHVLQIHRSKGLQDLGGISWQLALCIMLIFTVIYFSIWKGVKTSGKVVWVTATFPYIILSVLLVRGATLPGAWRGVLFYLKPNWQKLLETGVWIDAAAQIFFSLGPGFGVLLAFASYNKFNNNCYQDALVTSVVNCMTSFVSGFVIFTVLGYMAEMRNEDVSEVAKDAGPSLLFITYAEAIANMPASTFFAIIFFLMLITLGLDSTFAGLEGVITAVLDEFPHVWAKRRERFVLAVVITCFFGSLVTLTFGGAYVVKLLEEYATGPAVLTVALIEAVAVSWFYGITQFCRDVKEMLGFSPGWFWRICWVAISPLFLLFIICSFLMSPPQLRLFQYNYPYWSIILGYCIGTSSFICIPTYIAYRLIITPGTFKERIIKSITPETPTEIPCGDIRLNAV", "conditions": "cited from earlier work"}}, "note": "pIC50, pKi: −log10 of the molar value.", "data": [{"smiles": "CNC(C)C(=O)c1ccc2c(c1)OCO2", "note": "(centres unmarked) [Methylone, 3,4-methylenedioxy-N-methylcathinone]", "values": [{"measurement": "pIC50", "setting": "[1]", "result": 5.37}, {"measurement": "pKi", "setting": "[1]", "result": 5.43}, {"measurement": "CAPS-5 score decrease", "setting": "[2]; 6 weeks after the last dose", "result": 36.2, "unit": "points"}, {"measurement": "MADRS score decrease", "setting": "[2]; 6 weeks after the last dose", "result": 21.4, "unit": "points"}, {"measurement": "Anxiety Sub-Scale of MADRS, score reduction", "setting": "[2]; Day 3", "result": 20, "unit": "%"}, {"measurement": "CAPS-5 score decrease", "setting": "[2]; Day 3", "result": 8.4, "unit": "points"}, {"measurement": "MADRS score decrease", "setting": "[2]; Day 3", "result": 8.2, "unit": "points"}, {"measurement": "Anxiety Sub-Scale of MADRS, score reduction", "setting": "[2]; Day 10", "result": 43, "unit": "%"}, {"measurement": "CAPS-5 score decrease", "setting": "[2]; Day 10", "result": 23.3, "unit": "points"}, {"measurement": "MADRS score decrease", "setting": "[2]; Day 10", "result": 16.2, "unit": "points"}, {"measurement": "Participants achieving remission (CAPS-5)", "setting": "[2]; Day 10", "result": "~40", "unit": "%"}, {"measurement": "Participants much or very much improved (CGI-I)", "setting": "[2]; Day 10, two days after the 2nd dose", "result": "~70", "unit": "%"}, {"measurement": "Anxiety Sub-Scale of MADRS, score reduction", "setting": "[2]; Day 17", "result": 50, "unit": "%"}, {"measurement": "Anxiety Sub-Scale of MADRS, score reduction", "setting": "[2]; Day 24", "result": 57, "unit": "%"}, {"measurement": "Anxiety Sub-Scale of MADRS, score reduction", "setting": "[2]; Day 29", "result": 56, "unit": "%"}, {"measurement": "Anxiety Sub-Scale of MADRS, score reduction", "setting": "[2]; Day 36", "result": 66, "unit": "%"}, {"measurement": "Anxiety Sub-Scale of MADRS, score reduction", "setting": "[2]; Day 43", "result": 64, "unit": "%"}, {"measurement": "Anxiety Sub-Scale of MADRS, score reduction", "setting": "[2]; Day 64", "result": 66, "unit": "%"}, {"measurement": "SDS score, Family Life", "setting": "[2]; Day 64", "result": "3.1 (3.45)"}, {"measurement": "SDS score, Mean Overall", "setting": "[2]; Day 64", "result": "3.1 (3.12)"}, {"measurement": "SDS score, Social Life", "setting": "[2]; Day 64", "result": "3.2 (3.39)"}, {"measurement": "SDS score, Work/School", "setting": "[2]; Day 64", "result": "3.3 (3.78)"}, {"measurement": "TEAE: Bruxism", "setting": "[2]; N = 14", "result": 14.3, "unit": "%"}, {"measurement": "TEAE: Decreased appetite", "setting": "[2]; N = 14", "result": 28.6, "unit": "%"}, {"measurement": "TEAE: Dizziness", "setting": "[2]; N = 14", "result": 14.3, "unit": "%"}, {"measurement": "TEAE: Fatigue", "setting": "[2]; N = 14", "result": 21.4, "unit": "%"}, {"measurement": "TEAE: Headache", "setting": "[2]; N = 14", "result": 42.9, "unit": "%"}, {"measurement": "TEAE: Hyperhidrosis", "setting": "[2]; N = 14", "result": 14.3, "unit": "%"}, {"measurement": "TEAE: Influenza-like illness", "setting": "[2]; N = 14", "result": 14.3, "unit": "%"}, {"measurement": "TEAE: Insomnia", "setting": "[2]; N = 14", "result": 14.3, "unit": "%"}, {"measurement": "TEAE: Nasopharyngitis", "setting": "[2]; N = 14", "result": 14.3, "unit": "%"}, {"measurement": "TEAE: Non-cardiac chest pain", "setting": "[2]; N = 14", "result": 21.4, "unit": "%"}, {"measurement": "Drug-related serious adverse events", "setting": "[2]; Part A", "result": "No drug-related SAEs occurred"}, {"measurement": "TEAE: Any AE", "setting": "[2]; Safety Population N = 14", "result": 78.6, "unit": "%"}, {"measurement": "CAPS-5 mean change from baseline", "setting": "[2]; after the first dose", "result": "−8.4", "unit": "points"}, {"measurement": "SDS mean change from baseline", "setting": "[2]; after the first dose", "result": "−1.53"}, {"measurement": "Participants with absence of Distressing Dreams", "setting": "[2]; after treatment", "result": 77, "unit": "%"}, {"measurement": "Participants with absence of Reduced Sleep (MADRS)", "setting": "[2]; after treatment", "result": 62, "unit": "%"}, {"measurement": "Participants with absence of Sleep Disturbances", "setting": "[2]; after treatment", "result": 62, "unit": "%"}, {"measurement": "CAPS-5 Distressing Dreams (item B2) mean score", "setting": "[2]; after treatment, baseline 2.2", "result": 0.38}, {"measurement": "CAPS-5 Sleep Disturbances (item E6) mean score", "setting": "[2]; after treatment, baseline 3.3", "result": 0.92}, {"measurement": "MADRS Reduced Sleep mean score", "setting": "[2]; after treatment, baseline 4.3", "result": 1.08}, {"measurement": "PSQI total mean score", "setting": "[2]; end of study", "result": 9.4}, {"measurement": "Participants having mild or no impairment (SDS)", "setting": "[2]; end of study", "result": "> 50", "unit": "%"}, {"measurement": "PSQI total score improvement", "setting": "[2]; end of study (6 weeks after the last dose), baseline 13.5", "result": "−4.0", "unit": "points"}, {"measurement": "CAPS-5 mean change from baseline", "setting": "[2]; end of study visit (6 weeks after the last dose)", "result": "−36.2", "unit": "points"}, {"measurement": "Change in number of days lost", "setting": "[2]; end of the 4-week treatment period, baseline 2.6", "result": -2.0, "unit": "days"}, {"measurement": "Change in number of days underproductive", "setting": "[2]; end of the 4-week treatment period, baseline 4.7", "result": -3.3, "unit": "days"}, {"measurement": "Participants achieving remission (CAPS-5)", "setting": "[2]; end of the study", "result": 61.5, "unit": "%"}, {"measurement": "Participants much or very much improved (CGI-I)", "setting": "[2]; end of the study", "result": "all participants"}, {"measurement": "Patient-reported chronic pain after methylone", "setting": "[2]; one subject, knees, before 7-8 and 8-9 out of 10", "result": "2-3 out of 10"}, {"measurement": "SDS mean change from baseline", "setting": "[2]; through the 6-week follow-up period", "result": "−4.26"}, {"measurement": "Affinity for the serotonin transporter, times lower compared to MDMA", "setting": "serotonin transporter", "result": 3, "unit": "×"}]}]}
